Laboratory results: US9718781B2, “Methods and compounds for treating proliferative disorders and viral infections” (University College Dublin, National University of Ireland, …, priority 2012, dated 2017)

Key:
TPβ = target: T1, TPβ (Homo sapiens, UniProt P21731); experiment: U46619-induced [Ca2+]i mobilization in HEK.TPβ cells; assay type: cell-based; conditions: 1 μM U46619; for remaining activity at 1 µM: read-out: Percentage of Control, TPβ, 1 μM; for remaining activity at 10 µM: read-out: Percentage of Control, TPβ, 10 μM; for IC50: HEK.TPβ cells, Table 2, read-out: IC50 data for U46619-mediated [Ca2+]i mobilization, TPβ
T1 construct: expressed in transfected cells
T1 sequence (P21731 1-407 isoform P21731-2): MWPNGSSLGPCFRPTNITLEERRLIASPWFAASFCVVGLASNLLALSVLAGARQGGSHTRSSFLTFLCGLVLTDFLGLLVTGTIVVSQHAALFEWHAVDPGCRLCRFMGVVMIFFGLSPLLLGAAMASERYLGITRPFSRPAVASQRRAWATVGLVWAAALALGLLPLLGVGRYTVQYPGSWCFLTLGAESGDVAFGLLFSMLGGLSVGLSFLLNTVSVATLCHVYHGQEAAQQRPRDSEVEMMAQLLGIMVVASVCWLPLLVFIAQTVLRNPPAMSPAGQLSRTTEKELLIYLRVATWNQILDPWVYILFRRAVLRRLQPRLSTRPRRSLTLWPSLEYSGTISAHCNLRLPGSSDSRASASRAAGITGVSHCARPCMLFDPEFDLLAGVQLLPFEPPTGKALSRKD
From the text: (§1) An appropriate functional test for the evaluation of the agonistic and/or antagonistic potency of the compounds of the invention is the determination of calcium flux. Both TPα and TPβ are coupled to the G-protein Gαq. Therefore, stimulation of these receptors ultimately leads to a release of intracellular calcium ([Ca^2+]i) from intracellular stores. Consequently, the determination of [Ca^2+]i flux represents an appropriate functional test for the evaluation of the agonistic/antagonistic potency of compounds of the invention. Calcium can be measured using a molecule characterized by the covalent combination of a Ca^2+ chelating group and a fluorophore group. The Ca^2+ binding properties of these indicators are formed by the presence of a tetracarboxylic acid core as found for example in EGTA (Ethylene Glycol bis(2-aminoethyl)Tetraacetic Acid). Binding of Ca^2+ produces a wavelength shift in either the excitation or emission fluorescence spectra or a change in the emission intensity. Whereas the Ca^2+ binding to EGTA is pH dependent, recent dyes are designed from an EGTA derivative, BAPTA (1,2-Bis(2-Aminophenoxy)ethane-N,N,N′,N′-Tetraacetic Acid). Loading of these dyes inside cells commonly uses esterified forms (acetoxymethyl ester), which are able to cross the cell membranes and are subsequently hydrolyzed by esterases inside the cell.
(§2) Estimation of [Ca^2+]i flux is calculated from the fluorescence signal (F). For calibration, the maximal fluorescence (Fmax, Ca^2+-saturated form of the dye) as well as minimal fluorescence (Fmin, Ca^2+-free form of the dye) must be determined. These parameters are determined usually in situ after the experiment, for example by subsequent addition to the mixture of a cell-disrupting agent that releases all Ca^2+ such as Triton X100 and a potent Ca^2+-chelating agent such as EGTA. After subtraction of background fluorescence, [Ca^2+]; flux can be calculated for non-ratiometric indicators.
(§3) Intracellular [Ca^2+]; fluxes were measured using a fluorescence plate reader following a modified protocol of Kassack et al., ‘Quantitative comparison of functional screening by measuring intracellular Ca^2+ with radioligand binding at recombinant human dopamine receptors’, AAPS Pharmsci, 2002, 4(4); 102-111, in cell lines (e.g. HEK293 or other cell type) endogenously-expressing or over-expressing either TPα, TPβ or any other receptor or protein to be screened.
(§4) By way of example, HEK 293 cells which have been grown for 3-4 days in normal growth media (minimum essential media containing 10% FBS and 2 mmol/1 L-glutamine), under normal growth conditions (37° C., in humidified 5% CO2 atmosphere) are washed and harvested in KREBs-HEPES buffer (118 mM NaCl, 4.7 mM KCl, 1.2 mM MgSO4, 1.2 mM KH2PO4, 4.2 mM NaHCO3, 11.7 mM D-glucose, 1.3 mM CaCl2, 10 mM HEPES, pH 7.4). Cells are then incubated with 3 μM Fluo-4 in KREBs-HEPES buffer containing 1% Pluoronic F-127, for 1 hr at 25° C. with agitation. Then, cells are washed in KREBs-HEPES buffer containing 0.5% BSA and re-suspended at a final concentration of 3×10^5 cells/ml. Approx. 5.4×10^4 cells per well are plated in a 96-well plate and pre-incubated with test compounds for 10 m prior to measuring the fluorescence intensity at 520 nm for 25 seconds at 1 s intervals to monitor baseline using the Fluoroskan Ascent. Agonist (e.g., 1 μM U46619) is injected into separate wells by the automatic pipettor and fluorescence intensity is monitored at 520 nm for 75 seconds at 1 s intervals. Thereafter, Triton X100 and EGTA are added sequentially where Fmax refers to maximal fluorescence intensity measured after permeabilization of the cells with 2% Triton X100 and Fmin refers to fluorescence intensity measured after addition of 1 mM EGTA.
(§5) The dye Fluo-4 has its excitation peak at 480 nm, in the visible spectra, which spare cells to be damaged by UV (340-360 nm) stimulation and reduces auto-fluorescence of cells. […]

TPα = target: T2, TPα (Homo sapiens, UniProt P21731); experiment: U46619-induced [Ca2+]i mobilization in HEK.TPα cells; assay type: cell-based; conditions: for remaining activity at 1 µM: read-out: Percentage of Control, TPα, 1 μM; for remaining activity at 10 µM: read-out: Percentage of Control, TPα, 10 μM; for IC50: HEK.TPα cells, Table 2, read-out: IC50 data for U46619-mediated [Ca2+]i mobilization, TPα; for TPα:TPβ Selectivity Ratio: IC50 TPα/IC50 TPβ
T2 construct: expressed in transfected cells
T2 sequence (P21731 1-343): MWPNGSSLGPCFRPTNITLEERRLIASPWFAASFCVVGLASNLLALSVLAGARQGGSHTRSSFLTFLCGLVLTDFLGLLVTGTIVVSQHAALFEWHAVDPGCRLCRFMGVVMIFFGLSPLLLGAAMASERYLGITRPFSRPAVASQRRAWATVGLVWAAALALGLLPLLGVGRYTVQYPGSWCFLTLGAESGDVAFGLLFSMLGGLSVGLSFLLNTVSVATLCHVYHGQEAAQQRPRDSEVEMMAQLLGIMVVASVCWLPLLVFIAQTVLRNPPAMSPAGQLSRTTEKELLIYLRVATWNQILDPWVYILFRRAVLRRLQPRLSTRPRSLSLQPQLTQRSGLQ
From the text: as §1, §2, §3, §4, §5

[1] = antagonist 1 μM, % of agonist-induced response in vehicle-treated cells
[2] = antagonist 10 μM, % of agonist-induced response in vehicle-treated cells
[3] = antagonist 1 μM, 1 μM U46619, % of agonist-induced response in vehicle-treated cells
[4] = antagonist 10 μM, 1 μM U46619, % of agonist-induced response in vehicle-treated cells

| Compound | remaining activity at 1 µM (TPβ; [1]) | remaining activity at 10 µM (TPβ; [2]) | remaining activity at 1 µM (TPα; [3]) | remaining activity at 10 µM (TPα; [4]) | other results |
| --- | --- | --- | --- | --- | --- |
| COc1ccc(-c2cccc(Oc3ccc(C(=O)NCc4ccccn4)cc3S(=O)(=O)NC(=O)NC(C)(C)C)c2)cc1 [NTP11] | 49.8 ± 1.86% | 20.7 ± 2.81% | 73.1 ± 5.28% | 75.4 ± 5.83% |  |
| COc1ccc(-c2cccc(Oc3ccc(-c4ccncc4)cc3S(=O)(=O)NC(=O)NC(C)(C)C)c2)cc1 [NTP29] | 100 ± 4.69% | 94.6 ± 3.58% | 113 ± 8.15% | 105 ± 8.03% |  |
| COc1ccc(-c2cccc(Oc3ccc(C(=O)NCC4CC4)cc3S(=O)(=O)NC(=O)NC(C)(C)C)c2)cc1 [NTP16] | 83 ± 7.62% | 34 ± 3.88% | 117 ± 10.2% | 96.3 ± 1.24% |  |
| COc1ccc(-c2cccc(Oc3ccc(C#N)cc3S(=O)(=O)NC(=O)NC(C)(C)C)c2)cc1 [NTP33, N-(tert-butylcarbamoyl)-5-cyano-2-((4′-methoxy-[1,1′-biphenyl]-3-yl)oxy)benzene-sulfonamide] |  |  |  |  | Percentage of Control, TPβ, 1 μM (TPβ; [1]): 75.6 ± 6.46%; Percentage of Control, TPβ, 10 μM (TPβ; [2]): 34.5 ± 1.56%; Percentage of Control, TPα, 1 μM (TPα; [3]): 103 ± 6.25%; Percentage of Control, TPα, 10 μM (TPα; [4]): 82.4 ± 5.86% |
| COc1ccc(-c2cccc(Oc3ccc(-c4c(C)noc4C)cc3S(=O)(=O)NC(=O)NC(C)(C)C)c2)cc1 [NTP19] | 77.7 ± 3.24% | 64.5 ± 4.65% | 97.6 ± 8.6% | 99.4 ± 16% |  |
| COc1ccc(-c2cccc(Oc3ccc(C(=O)N4CCOCC4)cc3S(=O)(=O)NC(=O)NC(C)(C)C)c2)cc1 [NTP22] | 85.1 ± 4.38% | 50.1 ± 4.06% | 101 ± 7.28% | 87.6 ± 11.3% |  |
| CCCCCNC(=O)NS(=O)(=O)c1cc([N+](=O)[O-])ccc1Oc1cccc(-c2ccc(C)cc2)c1 [IX] |  |  |  |  | IC50 (TPβ): 1.54 µM; IC50 (TPα; 1 μM U46619): 11.6 µM; TPα:TPβ Selectivity Ratio (TPα): 7.5 |
| COc1ccc(-c2cccc(Oc3ccc(S(C)(=O)=O)cc3S(=O)(=O)NC(=O)NC(C)(C)C)c2)cc1 [NTP27, N-(tert-butylcarbamoyl)-2-((4′-methoxy-[1,1′-biphenyl]-3-yl)oxy)-5-(methylsulfonyl)benzenesulfonamide] | 36.4 ± 3.8% | 16.3 ± 2.39% | 81.1 ± 10.2% | 68.4 ± 4.56% | activity class in HEK.TPβ cells (TPβ; antagonist 1 μM): ACTIVE |
| CCCCCNC(=O)NS(=O)(=O)c1cc([N+](=O)[O-])ccc1Oc1cccc(-c2ccc(OC)cc2)c1 [XLIII] |  |  |  |  | IC50 (TPβ): 9.33 µM; IC50 (TPα; 1 μM U46619): 13 µM; TPα:TPβ Selectivity Ratio (TPα): 1.4 |
| COc1ccc(-c2cccc(Oc3ccc(C(=O)Nc4ccccc4)cc3S(=O)(=O)NC(=O)NC(C)(C)C)c2)cc1 [NTP25] | 61.6 ± 1.93% | 14.8 ± 2.03% | 80 ± 7.15% | 65.5 ± 6.32% |  |
| Cc1ccc(Nc2ccc([N+](=O)[O-])cc2S(=O)(=O)NC(=O)NC(C)(C)C)cc1 [BM573, reference compound] | 23.8 ± 0.68% | 9.9 ± 1.8% | 48.5 ± 1.77% | 12 ± 0.76% |  |
| COc1ccc(-c2cccc(Oc3ccc(C(=O)N(C)C)cc3S(=O)(=O)NC(=O)NC(C)(C)C)c2)cc1 [NTP2, 3-(N-(tert-butylcarbamoyl)sulfamoyl)-4-((4′-methoxy-[1,1′-biphenyl]-3-yl)oxy)-N,N-dimethylbenzamide] | 102 ± 3.59% | 90.1 ± 2.78% | 85 ± 2.71% | 54.9 ± 3.32% |  |
| COc1ccc(-c2cccc(Oc3cc[n+]([O-])cc3S(=O)(=O)NC(=O)NC(C)(C)C)c2)cc1 [NTP41, 3-(N-(tert-butylcarbamoyl)sulfamoyl)-4-((4′-methoxy-[1,1′-biphenyl]-3-yl)oxy)pyridine 1-oxide] | 72.2 ± 5.66% | 18.8 ± 1.77% | 82.6 ± 3.41% | 52.8 ± 8.03% |  |
| COc1ccc(-c2cccc(Oc3ccc(N)cc3S(=O)(=O)NC(=O)NC(C)(C)C)c2)cc1 [NTP1, 5-amino-N-(tert-butylcarbamoyl)-2-((4′-methoxy-[1,1′-biphenyl]-3-yl)oxy)benzene-sulfonamide] | 101 ± 4.75% | 102 ± 4.15% | 77.8 ± 8.71% | 50.2 ± 6.39% |  |
| COc1ccc(-c2cccc(Oc3ccc(C(=O)Nc4ncco4)cc3S(=O)(=O)NC(=O)NC(C)(C)C)c2)cc1 [NTP24] | 87.7 ± 8.18% | 37.9 ± 2.61% | 96.8 ± 3.94% | 107 ± 6.48% |  |
| CCn1cc(-c2ccc(Oc3cccc(-c4ccc(OC)cc4)c3)c(S(=O)(=O)NC(=O)NC(C)(C)C)c2)cn1 [NTP6, N-(tert-butylcarbamoyl)-5-(1-ethyl-1H-pyrazol-4-yl)-2-((4′-methoxy-[1,1′-biphenyl]-3-yl)oxy)benzenesulfonamide] | 94.4 ± 7.7% | 57.4 ± 6.86% | 88.6 ± 14.5% | 45.1 ± 5.75% |  |
| COc1ccc(-c2cccc(Oc3ccncc3S(=O)(=O)NC(=O)NC(C)(C)C)c2)cc1 [NTP31, N-(tert-butylcarbamoyl)-4-((4′-methoxy-[1,1′-biphenyl]-3-yl)oxy)pyridine-3-sulfonamide] | 74.8 ± 5.49% | 27.7 ± 4.21% | 77.3 ± 8.72% | 52.7 ± 2.89% |  |
| COc1ccc(-c2cccc(Oc3ccc(C(C)=O)cc3S(=O)(=O)NC(=O)NC(C)(C)C)c2)cc1 [NTP9, 5-acetyl-N-(tert-butylcarbamoyl)-2-((4′-methoxy-[1,1′-biphenyl]-3-yl)oxy)benzenesulfonamide] | 46.3 ± 7.33% | 12.2 ± 1.03% | 85.9 ± 9.13% | 70.4 ± 2.47% |  |
| COc1ccc(-c2cccc(Oc3ccc(C(F)(F)F)cc3S(=O)(=O)NC(=O)NC(C)(C)C)c2)cc1 [NTP3, N-(tert-butylcarbamoyl)-2-((4′-methoxy-[1,1′-biphenyl]-3-yl)oxy)-5-(trifluoromethyl)benzenesulfonamide] | 46 ± 5.92% | 14.8 ± 2.44% | 69.6 ± 5.35% | 41.6 ± 5.45% | activity class in HEK.TPβ cells (TPβ; antagonist 1 μM): ACTIVE |
